Format in all cases: biochemical
The target of assay [1] is T1, RCL (Rattus norvegicus, UniProt O35820).
T1 construct: made in house; host or cells: E. coli Bli5 (BL21 (DE3) pDIA17); pET24dRcl (untagged) or pET28aRcl (His-tagged)
T1 sequence (O35820 1-163): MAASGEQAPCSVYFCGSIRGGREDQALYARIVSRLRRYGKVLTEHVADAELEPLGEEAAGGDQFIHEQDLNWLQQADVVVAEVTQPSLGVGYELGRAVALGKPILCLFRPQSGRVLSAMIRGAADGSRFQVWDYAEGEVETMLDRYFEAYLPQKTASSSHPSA
The assay is described as follows: Compounds tested as substrate or inhibitor of RCL enzyme activity (dGMP hydrolysis). Conditions: for Ki: competitive for dGMP, double reciprocal plot; for substrate or inhibitor of the enzyme activity: versus dGMP as substrate. The method, then: The enzyme activity was determined either spectrophotometrically by following one of the reaction products, […] or deoxyribose 5-phosphate, or by HPLC separation and UV detection of the released nucleobase and the remaining substrate.
The initial velocity of the reaction was measured either at variable concentration of dGMP both in the absence and presence of inhibitors, or at fixed concentration of dGMP and variable concentrations of inhibitors allowing the testing of the nature of the inhibition.

Assay [2] has as its target T1, RCL. The assay is described as follows: pH dependence of RCL activity at saturating substrate. Conditions: for % of the maximal activity: pH 7.0; for % of the enzyme activity remained: pH 8.0; for pH optimum: saturating concentrations of substrate. The method, then:
Catalytic properties of the recombinant proteins. […] 50% of the maximal activity was still observed at pH 7.0 in the case of dCMP while it was only 20% in the case of dGMP. In both cases at pH 8.0, only 10% of the enzyme activity remained. Several metals were tested for their ability to stimulate or inhibit the reaction: Ca^2+, Mg^2+, Zn^2+, Na^+, and K^+.

Assay [3] has as its target T2, His-RCL (deoxynucleoside 5′-monophosphate N-glycosidase) (Rattus norvegicus, UniProt O35820).
T2 construct: made in house; host or cells: E. coli Bli5 (BL21 (DE3) pDIA17), plasmid pET28aRcl
T2 sequence (O35820 1-163): T1 sequence (O35820 1-163)
In words: Kinetic parameters of His-RCL (wild-type) with dNMP substrates, initial velocity measurements.
Procedure: The enzyme activity was determined either spectrophotometrically by following one of the reaction products, hypoxanthine or deoxyribose 5-phosphate, or by HPLC separation and UV detection of the released nucleobase and the remaining substrate. a) dIMP was used as a substrate and the hypoxanthine released oxidized to uric acid by xanthine oxidase. […] The decrease in absorbance at 340 nm was followed on a Amersham Biosciences Ultrospec 3100 pro spectrophotometer, using a millimolar absorbance coefficient of 6.22. […] Initial velocity experiments were carried out at variable concentrations of the six deoxynucleoside 5'-monophosphate: dAMP, dCMP, dGMP, dIMP, dTMP and dUMP (Table 1).

[4] abbreviates: Table 1, substrate of His-RCL, five concentrations.
Where [5] appears, read: pyrimidine deoxynucleotides, read-out: Km of RCL.
[6] abbreviates: Table 3, additional substrates of His-RCL, in 1/s.
[7] abbreviates: Table 3, additional substrates of His-RCL, read-out: Km.
The mark [8] stands for this setting: purine deoxynucleotides, read-out: Km of RCL.

Read-outs that look alike come from different tables or passages of the source.

As usually defined, the Ki is the dissociation constant of the complex between target and ligand, obtained from inhibition or displacement. For `CSc1nc(N)nc2c1ncn2[C@@H]1O[C@H](COP(=O)(O)O)[C@@H](O)[C@H]1O`, in assay [1], the inhibition constant Ki stood at 10 µM and the “substrate or inhibitor of the enzyme activity” value (“substrate or inhibitor” below) is listed as “competitive inhibitors”.

As a reminder, the Km is the substrate concentration at which the rate is half of its maximum. As for `Nc1ccn([C@H]2C[C@H](O)[C@@H](COP(=O)(O)O)O2)c(=O)n1` [dCMP], in assay [2], the “% of the maximal activity” value amounted to 50%, the “% of the enzyme activity remained” value is 10% and the pH optimum is reported as around 6.0 pH. For the same compound, the kcat in assay [3] (setting [4]) was determined as 0.0231 s⁻¹. Further, the Km in assay [3] (setting [5]) amounted to 4000 µM.

For the compound `NC1=NC(=O)C2=NC(=O)N([C@H]3C[C@H](O)[C@@H](COP(=O)(O)O)O3)C2=N1` [8-oxo-dGMP, 8-oxo-deoxyguanosine 5′-monophosphate], the “substrate or inhibitor” value in assay [1] is recorded as “neither a substrate nor an inhibitor”.

As to `Cc1cn([C@H]2C[C@H](O)[C@@H](COP(=O)(O)O)O2)c(=O)[nH]c1=O` [dTMP], the Michaelis-Menten constant (Km) in assay [3] (setting [5]) was above 50000 µM.

On to `Nc1nc2c(ncn2[C@H]2C[C@H](OP(=O)(O)O)[C@@H](CO)O2)c(=O)[nH]1` [2′-deoxyguanosine 3′-monophosphate], for which, in assay [1], the “substrate or inhibitor” value is given as “neither a substrate nor an inhibitor”.

Take `O=c1ccn([C@H]2C[C@H](O)[C@@H](COP(=O)(O)O)O2)c(=O)[nH]1` [dUMP]: the kcat in assay [3] (setting [4]) came out at 0.158 s⁻¹. For the same compound, the Km in assay [3] (setting [5]) came out at 15000 µM.

`C[n+]1cn([C@H]2C[C@H](O)[C@@H](COP(=O)(O)O)O2)c2nc(N)[nH]c(=O)c21` [N7-methyl-dGMP]: the kcat in assay [3] (setting [6]) was 2.376. Moreover, the Km in assay [3] (setting [7]) came out at 470 ± 68 µM.

On to `CCNc1nc2c(ncn2[C@H]2C[C@H](O)[C@@H](COP(=O)(O)O)O2)c(=O)[nH]1` [N2-ethyl-dGMP], for which the kcat in assay [3] (setting [6]) is 0.0528. In assay [3] (setting [7]), the Km was 71 ± 8 µM.

`Nc1ncnc2c1ncn2[C@H]1C[C@H](O)[C@@H](COP(=O)(O)O)O1` [dAMP]: the kcat in assay [3] (setting [4]) is 0.0066 s⁻¹. In addition, the Km in assay [3] (setting [8]) was 250 µM.

As for `Nc1nc2c(ncn2[C@@H]2O[C@H](COP(=O)(O)O)[C@@H](O)[C@H]2O)c(=O)[nH]1` [GMP], in assay [1], the inhibition constant (Ki) was determined as 20 µM and the “substrate or inhibitor” value is listed as “competitive inhibitors”.

As to `Nc1nc2c(ncn2[C@H]2C[C@H](O)[C@@H](COP(=O)(O)O)O2)c(=O)[nH]1` [dGMP], the “% of the maximal activity” value in assay [2] amounted to 20%. For the same compound, the “% of the enzyme activity remained” value in assay [2] was determined as 10%. Further, the pH optimum in assay [2] was around 6.0 pH. Besides, in assay [3], the Vmax was determined as 0.09 U. mg^−1. For the same compound, the kcat in assay [3] (setting [4]) was determined as 0.0297 s⁻¹; in assay [3] (Table 2, Wt His-RCL, dGMP 250 μM to 20 mM) it was 0.0298 s⁻¹; in assay [3] (setting [6]) it was 0.033; in assay [3] (corresponds to Vmax) it was 0.0268 s⁻¹. The Michaelis constant (Km) in assay [3] (setting [7]) worked out at 77 ± 20 µM; in assay [3] (setting [8]) it was 50 µM. The “times more efficiently cleaved than dAMP” value in assay [3] (kcat/Km comparison) was 20 times. Moreover, the “times more efficiently cleaved than dIMP” value in assay [3] (kcat/Km comparison) was 40 times.

As for `COc1nc(N)nc2c1ncn2[C@H]1C[C@H](O)[C@@H](COP(=O)(O)O)O1` [06-methyl-dGMP], in assay [3] (setting [6]), the kcat is reported as 0.033. Besides, the Km in assay [3] (setting [7]) is 61 ± 16 µM.
